# Assay results reported in PMC8270270, “Rosin Derivatives as a Platform for the Antiviral Drug Design” (Molecules, 2021).
# Read-outs that look alike come from different tables or passages of the source.
# What was measured:
# [1] = tested on: A/California/07/09 ((A)H1N1pdm09) viral strain; type: cell-based, influenza virus; conditions: for Antiviral activity (in words): A549, in vitro
# Candida tropicalis = assay: Disco-diffuse method, fungicidal activity; type: cell-based; conditions: for Fungicidal activity (in words): 1-50 mg/mL; for zone of inhibition at 1000 µg/mL / zone of inhibition at 5000 µg/mL / zone of inhibition at 10000 µg/mL / zone of inhibition at 25000 µg/mL / zone of inhibition at 50000 µg/mL: Candida tropicalis, read-out: The Zone of Growth Inhibition; for zone of inhibition at 1000 µg/mL / zone of inhibition at 5000 µg/mL / zone of inhibition at 10000 µg/mL / zone of inhibition at 25000 µg/mL / zone of inhibition at 50000 µg/mL / The Zone of Growth Inhibition: 48 h at 32 °C
# Description: (§1) The determination of compounds (I, IV, VI–XI) effect concerning microorganisms was carried out using test strains of Escherichia coli, Bacillus subtilis, and Candida tropicalis. They are not only natural inhabitants of natural biocenoses but also a part of human microbiocenosis. Used microorganisms of bacteria were selected as representatives of the Gram-positive and Gram-negative human microbiota. The antibacterial activity of compounds (I, IV, VI–XI) was studied by the disco-diffuse method. The strain culture was transferred sterile from the mown agar into test tubes with 5 mL of nutrient medium to obtain a “night culture” 12–15 h before the experiment. Beef-extract agar (BEA) was used as a nutrient medium for the development of bacterial cells, and Sabouraud’s medium was used for yeast. Bacterial cultures were incubated in a thermostat at 37 °C, and yeast cultures at 32 °C. The melted BEA was poured sterile into Petri dishes (diameter 90 mm) and evenly distributed over the bottom of the dish, covered with a lid, and left on the table until it solidified completely. Next, the dishes with BEA were inoculated with a “lawn” by introducing a strain culture (suspension titer −1–2 × 10^8 CFU/mL) in an amount of 500 µL and evenly distributing it with a sterile spatula. The dishes were left for 60–90 min to dry the culture. Compounds (I, IV, VI–XI) were previously dissolved, and the sequential dilutions were applied to disks. Dimethyl sulfoxide (DMSO) was used as a solvent for the DAA. Water was used as a solvent for their potassium salts. […] This disk was impregnated with a solution of the test compound amounting to 100 μL and incubated in the dark for 24 h at 37 °C (Escherichia coli and Bacillus subtilis) and 48 h at 32 °C (Candida tropicalis). The solution diffuses, forming a concentration gradient of the test compound around the disc. After the incubation period, the inhibition zone or stimulation of microbial growth around the disk was measured in the experimental and control samples. A conclusion was made about the degree (bactericidal) toxicity of compounds. Solvent-treated disks (DMSO) were used as controls. The experiments were performed three times.
# A549 cell culture = assay: Cytotoxicity, colorimetric MTT assay; type: cell-based, human; conditions: for Cytotoxicity (in words): A549, MTT assay; for IC50: Homo sapiens, read-out: Determined IC50
# Description: The cytotoxicity of compounds (I–V) was assessed on A549 cell culture using a colorimetric MTT assay. A549 cells were incubated for 24 h at 37 °C, 5% CO2 with solutions of the studied compounds at various concentrations. Next, the cell monolayer was washed, and MTT solution was added in a volume of 0.1 mL at a concentration of […]. After 1 h of MTT contact with the cells, the wells were washed, and the formed formazan crystals were dissolved in 0.1 mL of DMSO. The results were recorded at 560 nm on a CLARIOstar Plus plate photometer (BMG LABTECH, Ortenberg, Germany). The IC50 was calculated using GraphPad Prism 6.0.
# Escherichia coli = assay: Disco-diffuse method, antibacterial activity; type: cell-based; conditions: for zone of inhibition at 1000 µg/mL / zone of inhibition at 5000 µg/mL / zone of inhibition at 10000 µg/mL / zone of inhibition at 25000 µg/mL / zone of inhibition at 50000 µg/mL / The Zone of Growth Inhibition: 24 h at 37 °C; for zone of inhibition at 1000 µg/mL / zone of inhibition at 5000 µg/mL / zone of inhibition at 10000 µg/mL / zone of inhibition at 25000 µg/mL / zone of inhibition at 50000 µg/mL: read-out: The Zone of Growth Inhibition
# Description: as §1
# Bacillus subtilis = assay: Disco-diffuse method, antibacterial activity; type: cell-based; conditions: for zone of inhibition at 1000 µg/mL / zone of inhibition at 5000 µg/mL / zone of inhibition at 10000 µg/mL / zone of inhibition at 25000 µg/mL / zone of inhibition at 50000 µg/mL / The Zone of Growth Inhibition: 24 h at 37 °C; for zone of inhibition at 1000 µg/mL / zone of inhibition at 5000 µg/mL / zone of inhibition at 10000 µg/mL / zone of inhibition at 25000 µg/mL / zone of inhibition at 50000 µg/mL: read-out: The Zone of Growth Inhibition
# Description: as §1
# [2] = tested on: herpes simplex virus type 1 (HSV-1); set-up: method as in PMID 19892441; conditions: endpoint titration (EPTT); cited from earlier work
# [3] = compound concentration 10 mg/mL
# [4] = compound concentration 25 mg/mL
# [5] = compound concentration 50 mg/mL
# [6] = at the working concentrations used to assess antiviral activity
# [7] = Escherichia coli, compound concentration 1 mg/mL
# [8] = Escherichia coli, compound concentration 5 mg/mL
# [9] = Escherichia coli, compound concentration 10 mg/mL
# [10] = Escherichia coli, compound concentration 25 mg/mL
# [11] = Escherichia coli, compound concentration 50 mg/mL
# [12] = Bacillus subtilis, compound concentration 1 mg/mL
# [13] = Bacillus subtilis, compound concentration 5 mg/mL
# [14] = Bacillus subtilis, compound concentration 10 mg/mL
# [15] = Bacillus subtilis, compound concentration 25 mg/mL
# [16] = Bacillus subtilis, compound concentration 50 mg/mL
# [17] = A549, therapeutic scheme, 24 h after stimulation, working concentration
Structure (SMILES),Antiviral activity (in words) ([1]; working concentration),Fungicidal activity (in words) (Candida tropicalis),zone of inhibition at 1000 µg/mL (Candida tropicalis; compound concentration 1 mg/mL),zone of inhibition at 5000 µg/mL (Candida tropicalis; compound concentration 5 mg/mL),zone of inhibition at 10000 µg/mL (Candida tropicalis; [3]),zone of inhibition at 25000 µg/mL (Candida tropicalis; [4]),zone of inhibition at 50000 µg/mL (Candida tropicalis; [5]),Cytotoxicity (in words) (A549 cell culture),Cell viability (in words) (A549 cell culture; [6]),Antibacterial activity (in words) (Escherichia coli; 1-50 mg/mL),zone of inhibition at 1000 µg/mL (Escherichia coli; [7]),zone of inhibition at 5000 µg/mL (Escherichia coli; [8]),zone of inhibition at 10000 µg/mL (Escherichia coli; [9]),zone of inhibition at 25000 µg/mL (Escherichia coli; [10]),zone of inhibition at 50000 µg/mL (Escherichia coli; [11]),Antibacterial activity (in words) (Bacillus subtilis; 1-50 mg/mL),zone of inhibition at 1000 µg/mL (Bacillus subtilis; [12]),zone of inhibition at 5000 µg/mL (Bacillus subtilis; [13]),zone of inhibition at 10000 µg/mL (Bacillus subtilis; [14]),zone of inhibition at 25000 µg/mL (Bacillus subtilis; [15]),other results
"CC(C)c1cc2c(cc1S(=O)(=O)O)C1(C)CCCC(C)(C(=O)O)C1CC2 (stereo not drawn) [I, 12-sulfodehydroabietic acid]",did not show antiviral activity,did not show either antibacterial activity or fungicidal activity,0 mm,0 mm,0 mm,0 mm,0 mm,weak toxicity,did not cause a significant decrease in cell viability,did not show either antibacterial activity or fungicidal activity,0 mm,0 mm,0 mm,0 mm,0 mm,did not show either antibacterial activity or fungicidal activity,0 mm,0 mm,0 mm,0 mm,"IC50 (A549 cell culture; A549, 24 h incubation, MTT assay): > 518 mg/L; zone of inhibition at 50000 µg/mL (Bacillus subtilis; [16]): 0 mm"
"CC(C)C1=CC2=CC[C@@H]3[C@](C)(CCC[C@@]3(C)C(=O)O)[C@H]2CC1 [IX, Abietic acid]",–,–,0 mm,0 mm,0 mm,1 ± 0.11 mm,1 ± 0.15 mm,–,–,–,0 mm,1 ± 0.1 mm,1 ± 0.1 mm,2 ± 0.24 mm,3 ± 0.14 mm,–,1 ± 0.15 mm,2.1 ± 0.03 mm,2 ± 0.05 mm,4 ± 0.1 mm,"MIC (Escherichia coli; Escherichia coli, from disc diffusion, 1-50 mg/mL, read-out: minimum inhibitory concentration): 5000 mg/L; zone of inhibition at 50000 µg/mL (Bacillus subtilis; [16]): 5 ± 1.04 mm; MIC (Bacillus subtilis; Bacillus subtilis, from disc diffusion, 1-50 mg/mL, read-out: minimum inhibitory concentration): 1000 mg/L"
CC(C)c1ccc2c(c1)CC[C@H]1[C@](C)(COC(=O)c3ccccc3)CCC[C@]21C [dehydroabietinol benzoate],–,–,–,–,–,–,–,–,–,–,–,–,–,–,–,–,–,–,–,–,Concentration at which HSV-1 replication was reduced [2]: below 100 mg/mL
"CC(C)c1cc2c(cc1S(=O)(=O)[O-])C1(C)CCCC(C)(C(=O)[O-])C1CC2.[K+].[K+] (stereo not drawn) [IV, Potassium 12-sulfodehydroabietate]",did not show antiviral activity,did not show either antibacterial activity or fungicidal activity,–,–,–,–,–,weak toxicity,did not cause a significant decrease in cell viability,did not show either antibacterial activity or fungicidal activity,–,–,–,–,–,did not show either antibacterial activity or fungicidal activity,–,–,–,–,"Dose-dependent antiviral effect [1]: did not significantly reduce the viral load; The Zone of Growth Inhibition (Candida tropicalis; compound concentration 1 mg/mL): 0 mm; The Zone of Growth Inhibition (Candida tropicalis; compound concentration 5 mg/mL): 0 mm; The Zone of Growth Inhibition (Candida tropicalis; [3]): 0 mm; The Zone of Growth Inhibition (Candida tropicalis; [4]): 0 mm; The Zone of Growth Inhibition (Candida tropicalis; [5]): 0 mm; IC50 (A549 cell culture; A549, 24 h): > 431 mg/L; The Zone of Growth Inhibition (Escherichia coli; compound concentration 1 mg/mL): 0 mm; The Zone of Growth Inhibition (Escherichia coli; compound concentration 5 mg/mL): 0 mm; The Zone of Growth Inhibition (Escherichia coli; [3]): 0 mm; The Zone of Growth Inhibition (Escherichia coli; [4]): 0 mm; The Zone of Growth Inhibition (Escherichia coli; [5]): 0 mm; The Zone of Growth Inhibition (Bacillus subtilis; compound concentration 1 mg/mL): 0 mm; The Zone of Growth Inhibition (Bacillus subtilis; compound concentration 5 mg/mL): 0 mm; The Zone of Growth Inhibition (Bacillus subtilis; [3]): 0 mm; The Zone of Growth Inhibition (Bacillus subtilis; [4]): 0 mm; The Zone of Growth Inhibition (Bacillus subtilis; [5]): 0 mm"
"CC(C)C1=CC2=CCC3C(C)(C(=O)[O-])CCCC3(C)C2CC1.[K+] (stereo not drawn) [II, Potassium abietate]",–,–,–,–,–,–,–,highest cytotoxicity,–,–,–,–,–,–,–,–,–,–,–,–,"Dose-dependent antiviral effect [1]: led to a decrease in the antiviral effect; Content of viral protein NP inside the cells (ELISA) [1, 17]: decrease in the content of the viral protein NP inside the cells; Viral load in supernatants obtained from cells (NP ELISA), vs control [1, 17]: slight decrease in the viral load; IC50 (A549 cell culture; A549, 24 h): 240 mg/L; Decrease in viable cells (A549 cell culture; [6]): 50%"
